Measured values as given in ChEMBL document CHEMBL3885881, “DrugMatrix”.

Species on record: Rattus norvegicus
Experiment: DrugMatrix - Regimen: Daily Repeat
Format: toxicity, organism-based, Sprague-Dawley
Parameters: regimen Daily Repeat, gender Male, age 6-8 weeks
Conditions: in vivo, po, route oral GAVAGE, […]; for ABSOLUTE BASOPHIL / ABSOLUTE EOSINOPHIL / ABSOLUTE LYMPHOCYTE / ABSOLUTE SEGMENTED NEUTROPHIL / BASOPHIL / EOSINOPHIL / ERYTHROCYTE COUNT / HEMATOCRIT / HEMOGLOBIN / LYMPHOCYTE / MEAN CORPUSCULAR HEMOGLOBIN / MEAN CORPUSCULAR HEMOGLOBIN CONCENTRATION / MEAN CORPUSCULAR VOLUME / MONOCYTE / NUCLEATED RED BLOOD CELLS / PLATELET COUNT: tissue Blood; for ALANINE AMINOTRANSFERASE / ALBUMIN / ALKALINE PHOSPHATASE / ASPARTATE AMINOTRANSFERASE / BLOOD UREA NITROGEN / CARBON DIOXIDE / CHOLESTEROL / CREATINE PHOSPHOKINASE / CREATININE / GLUCOSE / LACTATE DEHYDROGENASE / POTASSIUM / SODIUM / TOTAL BILIRUBIN / TOTAL PROTEIN / URIC ACID: tissue Plasma
[1] = 20 mg/kg, 120 h, dose level Low, time 5 day
[2] = 2000 mg/kg, 72 h, dose level High, time 3 day
[3] = 2000 mg/kg, 120 h, dose level High, time 5 day

COc1ccccc1OCCNCC(O)COc1cccc2[nH]c3ccccc3c12 (stereo unspecified) [CARVEDILOL] was tested, and the “ABSOLUTE BASOPHIL” value [1] was 0 CELLS/uL, the “ABSOLUTE EOSINOPHIL” value [1] was 48 CELLS/uL and the “ABSOLUTE LYMPHOCYTE” value [1] was 6685 CELLS/uL. For the same compound, the “ABSOLUTE SEGMENTED NEUTROPHIL” value [1] was 615 CELLS/uL, the BASOPHIL [1] was 0% and the EOSINOPHIL [1] was 0.67%. For the same compound, the “ERYTHROCYTE COUNT” value [1] was 5.51 x10E6/uL, the HEMATOCRIT [1] was 34.9% and the HEMOGLOBIN [1] was 13.3 G/DL. The LYMPHOCYTE [1] was 90.33%, the “MEAN CORPUSCULAR HEMOGLOBIN” value [1] was 24.17 pg and the “MEAN CORPUSCULAR HEMOGLOBIN CONCENTRATION” value [1] was 38.13 G/DL. For the same compound, the “MEAN CORPUSCULAR VOLUME” value [1] was 63.4 fL, the MONOCYTE [1] was 0.67% and the “NUCLEATED RED BLOOD CELLS” value [1] was 0.33 /100WBC. The “PLATELET COUNT” value [1] was 1008 x10E3/uL, the “ALANINE AMINOTRANSFERASE” value [1] was 58.33 u/L and the ALBUMIN [1] was 3.93 G/DL. The “ALKALINE PHOSPHATASE” value [1] was 439.33 u/L, the “ASPARTATE AMINOTRANSFERASE” value [1] was 81.67 u/L and the “BLOOD UREA NITROGEN” value [1] was 15 mg/dL. For the same compound, the “CARBON DIOXIDE” value [1] was 30.67 mmol/L, the CHOLESTEROL [1] was 57 mg/dL and the “CREATINE PHOSPHOKINASE” value [1] was 167.67 u/L. For the same compound, the CREATININE [1] was 0.13 mg/dL, the GLUCOSE [1] was 153.67 mg/dL and the “LACTATE DEHYDROGENASE” value [1] was 137 u/L. For the same compound, the POTASSIUM [1] was 5.49 MEQ/L, the SODIUM [1] was 144.75 MEQ/L and the “TOTAL BILIRUBIN” value [1] was 0.23 mg/dL. The “TOTAL PROTEIN” value [1] was 5.63 G/DL, the “URIC ACID” value [1] was 0.5 mg/dL and the “ABSOLUTE BASOPHIL” value [2] was 0 CELLS/uL. The “ABSOLUTE EOSINOPHIL” value [2] was 24.67 CELLS/uL, the “ABSOLUTE LYMPHOCYTE” value [2] was 8554.33 CELLS/uL and the “ABSOLUTE SEGMENTED NEUTROPHIL” value [2] was 841.33 CELLS/uL. For the same compound, the BASOPHIL [2] was 0%, the EOSINOPHIL [2] was 0.33% and the “ERYTHROCYTE COUNT” value [2] was 5.87 x10E6/uL. It also gave an HEMATOCRIT [2] of 36.37%, an HEMOGLOBIN [2] of 13.9 G/DL and an LYMPHOCYTE [2] of 88%. The “MEAN CORPUSCULAR HEMOGLOBIN” value [2] was 23.67 pg, the “MEAN CORPUSCULAR HEMOGLOBIN CONCENTRATION” value [2] was 38.23 G/DL and the “MEAN CORPUSCULAR VOLUME” value [2] was 61.93 fL. The MONOCYTE [2] was 1.67%, the “NUCLEATED RED BLOOD CELLS” value [2] was 0 /100WBC and the “PLATELET COUNT” value [2] was 1204 x10E3/uL. The “ALANINE AMINOTRANSFERASE” value [2] was 147 u/L, the ALBUMIN [2] was 3.83 G/DL and the “ALKALINE PHOSPHATASE” value [2] was 433.33 u/L. For the same compound, the “ASPARTATE AMINOTRANSFERASE” value [2] was 253.67 u/L, the “BLOOD UREA NITROGEN” value [2] was 12.33 mg/dL and the “CARBON DIOXIDE” value [2] was 35.67 mmol/L. The CHOLESTEROL [2] was 135.33 mg/dL, the “CREATINE PHOSPHOKINASE” value [2] was 315.33 u/L and the CREATININE [2] was 0.15 mg/dL. For the same compound, the GLUCOSE [2] was 110.33 mg/dL, the “LACTATE DEHYDROGENASE” value [2] was 180 u/L and the POTASSIUM [2] was 4.83 MEQ/L. The SODIUM [2] was 143.43 MEQ/L, the “TOTAL BILIRUBIN” value [2] was 0.27 mg/dL and the “TOTAL PROTEIN” value [2] was 5.7 G/DL. For the same compound, the “URIC ACID” value [2] was 0.7 mg/dL, the “ABSOLUTE BASOPHIL” value [3] was 0 CELLS/uL and the “ABSOLUTE EOSINOPHIL” value [3] was 92.67 CELLS/uL. The “ABSOLUTE LYMPHOCYTE” value [3] was 7992.67 CELLS/uL, the “ABSOLUTE SEGMENTED NEUTROPHIL” value [3] was 4483.67 CELLS/uL and the BASOPHIL [3] was 0%. For the same compound, the EOSINOPHIL [3] was 0.67%, the “ERYTHROCYTE COUNT” value [3] was 7.13 x10E6/uL and the HEMATOCRIT [3] was 41.5%. For the same compound, the HEMOGLOBIN [3] was 15.4 G/DL, the LYMPHOCYTE [3] was 64.67% and the “MEAN CORPUSCULAR HEMOGLOBIN” value [3] was 21.77 pg. The “MEAN CORPUSCULAR HEMOGLOBIN CONCENTRATION” value [3] was 37.27 G/DL, the “MEAN CORPUSCULAR VOLUME” value [3] was 58.43 fL and the MONOCYTE [3] was 1.67%. The “NUCLEATED RED BLOOD CELLS” value [3] was 0 /100WBC, the “PLATELET COUNT” value [3] was 1163.67 x10E3/uL and the “ALANINE AMINOTRANSFERASE” value [3] was 380 u/L. For the same compound, the ALBUMIN [3] was 3.27 G/DL, the “ALKALINE PHOSPHATASE” value [3] was 444.33 u/L and the “ASPARTATE AMINOTRANSFERASE” value [3] was 620.33 u/L. The “BLOOD UREA NITROGEN” value [3] was 39.33 mg/dL, the “CARBON DIOXIDE” value [3] was 27 mmol/L and the CHOLESTEROL [3] was 132.33 mg/dL. For the same compound, the “CREATINE PHOSPHOKINASE” value [3] was 3005.33 u/L, the CREATININE [3] was 0.42 mg/dL and the GLUCOSE [3] was 124 mg/dL. For the same compound, the “LACTATE DEHYDROGENASE” value [3] was 673.67 u/L, the POTASSIUM [3] was 6.23 MEQ/L and the SODIUM [3] was 138.53 MEQ/L. For the same compound, the “TOTAL BILIRUBIN” value [3] was 0.4 mg/dL, the “TOTAL PROTEIN” value [3] was 5.33 G/DL and the “URIC ACID” value [3] was 1.5 mg/dL.
